Legend:
Experiment in all cases: relative viability (nuclei count vs DMSO), 5 days (fraction); higher = more cells survive
Carboplatin + Decitabine = compound: C1CC(C1)(C(=O)O)C(=O)O.[NH2-].[NH2-].[Pt+2] [Carboplatin] + Nc1ncn([C@H]2C[C@H](O)[C@@H](CO)O2)c(=O)n1 [Decitabine] (partner 2 µM)
Procedure, shortened: (§1)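 Lung cancer cell lines in 1536-well plates were dosed by pin tool the day after seeding, either with one drug alone or with a fixed anchor-drug dose plus five library-drug doses (not always all listed) in √10 steps. After 5 days, cells were fixed and their nuclei stained in one step (final 0.05% Triton X-100, 1% formaldehyde, 1 ug/ml Hoechst), then counted on 4× images. Relative viability is the nuclei count in treated wells divided by that in vehicle wells. Values are medians of duplicate plates.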

Carboplatin + Crizotinib = compound: C1CC(C1)(C(=O)O)C(=O)O.[NH2-].[NH2-].[Pt+2] [Carboplatin] + C[C@@H](Oc1cc(-c2cnn(C3CCNCC3)c2)cnc1N)c1c(Cl)ccc(F)c1Cl [Crizotinib] (partner 1 µM)
Procedure, shortened: as §1

MLN4924 + Bortezomib = compound: NS(=O)(=O)OC[C@@H]1C[C@@H](n2ccc3c(N[C@H]4CCc5ccccc54)ncnc32)C[C@@H]1O [MLN4924] + CC(C)C[C@H](NC(=O)[C@H](Cc1ccccc1)NC(=O)c1cnccn1)B(O)O [Bortezomib] (partner 0.002 µM)
Procedure, shortened: as §1

Carboplatin + Linsitinib = compound: C1CC(C1)(C(=O)O)C(=O)O.[NH2-].[NH2-].[Pt+2] [Carboplatin] + C[C@]1(O)C[C@@H](c2nc(-c3ccc4ccc(-c5ccccc5)nc4c3)c3c(N)nccn32)C1 [Linsitinib] (partner 1 µM)
Procedure, shortened: as §1

Cell Line | relative viability (Carboplatin + Decitabine; first compound 0.08 µM) | relative viability (Carboplatin + Decitabine; first compound 0.253 µM) | relative viability (Carboplatin + Decitabine; first compound 0.8 µM) | relative viability (Carboplatin + Decitabine; first compound 2.53 µM) | relative viability (Carboplatin + Decitabine; first compound 8 µM) | relative viability (Carboplatin + Crizotinib; first compound 0.08 µM) | relative viability (Carboplatin + Crizotinib; first compound 0.253 µM) | relative viability (Carboplatin + Crizotinib; first compound 0.8 µM) | relative viability (Carboplatin + Crizotinib; first compound 2.53 µM) | relative viability (Carboplatin + Crizotinib; first compound 8 µM) | relative viability (MLN4924 + Bortezomib; first compound 0.04 µM) | relative viability (MLN4924 + Bortezomib; first compound 0.1265 µM) | relative viability (MLN4924 + Bortezomib; first compound 0.4 µM) | relative viability (MLN4924 + Bortezomib; first compound 1.265 µM) | relative viability (MLN4924 + Bortezomib; first compound 4 µM) | relative viability (Carboplatin + Linsitinib; first compound 0.08 µM) | relative viability (Carboplatin + Linsitinib; first compound 0.253 µM) | relative viability (Carboplatin + Linsitinib; first compound 0.8 µM) | relative viability (Carboplatin + Linsitinib; first compound 2.53 µM) | relative viability (Carboplatin + Linsitinib; first compound 8 µM)
HCC-78 | 0.659 | 0.61 | 0.709 | 0.656 | 0.73 | 0.367 | 0.325 | 0.315 | 0.308 | 0.304 | 0.568 | 0.397 | 0.51 | 0.241 | 0.229 | 0.509 | 0.461 | 0.416 | 0.46 | 0.511
HCC-366 | 0.322 | 0.32 | 0.336 | 0.251 | 0.203 | 0.518 | 0.659 | 0.445 | 0.465 | 0.154 | 1.04 | 1.01 | 0.911 | 0.293 | 0.0253 | 0.848 | 0.595 | 0.48 | 0.437 | 0.265
HCC-827 | 0.354 | 0.321 | 0.248 | 0.19 | 0.304 | 0.97 | 0.93 | 0.916 | 0.816 | 0.87 | 1.05 | 0.966 | 0.791 | 0.474 | 0.375 | 1.04 | 0.891 | 0.857 | 0.936 | 0.955
HOP-62 | 0.234 | 0.223 | 0.243 | 0.195 | 0.214 | 1.04 | 1 | 0.925 | 0.88 | 0.534 | 0.392 | 0.402 | 0.117 | 0.0531 | 0.0923 | 0.982 | 0.996 | 0.949 | 0.947 | 0.801
LC-2-ad | 0.753 | 0.93 | 0.708 | 0.776 | 0.64 | 0.478 | 0.448 | 0.388 | 0.31 | 0.416 | 0.943 | 0.859 | 0.41 | 0.226 | 0.104 | 0.903 | 0.859 | 0.808 | 0.752 | 0.721
LCLC-97TM1 | 0.299 | 0.206 | 0.208 | 0.218 | 0.191 | 0.338 |  | 0.271 | 0.288 | 0.312 | 0.403 | 0.46 | 0.107 | 0.046 | 0.0727 | 0.177 |  | 0.17 | 0.195 | 0.192
LCLC-103H | 0.801 | 0.735 | 0.747 | 0.719 | 0.735 | 1.06 | 1.01 | 1.01 | 1.19 | 1.01 | 1.04 | 1.16 | 0.955 | 0.346 | 0.301 | 1.15 | 1.1 | 1.05 | 1.21 | 1.04
LOU-NH91 | 0.873 | 0.832 | 0.806 | 0.792 | 0.77 | 0.74 | 0.731 | 0.714 | 0.735 | 0.725 | 0.418 | 0.484 | 0.38 | 0.393 | 0.329 | 1.11 | 0.9 | 0.924 | 0.946 | 0.891
LU99A | 0.862 | 0.869 | 0.864 | 0.731 | 0.724 | 0.62 | 0.665 | 0.556 | 0.464 | 0.422 | 0.873 | 0.316 | 0.407 | 0.159 | 0.138 | 0.621 | 0.583 | 0.508 | 0.464 | 0.417
LXF-289 | 0.395 | 0.407 | 0.382 | 0.358 | 0.31 | 0.821 | 0.839 | 0.708 | 0.796 | 0.764 | 0.928 | 0.707 | 0.516 | 0.269 | 0.162 | 0.992 | 1.02 | 0.912 | 0.939 | 0.926
NCI-H23 | 0.377 | 0.266 | 0.298 | 0.291 | 0.276 | 0.638 | 0.542 | 0.516 | 0.488 | 0.39 | 0.94 | 0.617 | 0.376 | 0.165 | 0.144 | 0.536 | 0.716 | 0.542 | 0.563 | 0.492
NCI-H322M | 0.74 | 0.723 | 0.711 | 0.763 | 0.62 | 1.07 | 0.964 | 0.963 | 0.926 | 0.854 | 1.24 | 1.36 | 1.2 | 0.302 | 0.463 | 0.915 | 0.956 | 0.785 | 0.812 | 0.799
NCI-H441 | 0.215 | 0.242 | 0.211 | 0.209 | 0.222 | 0.72 | 0.925 | 0.618 | 0.791 | 0.655 | 0.876 | 0.29 | 0.236 | 0.145 | 0.191 | 0.608 | 0.506 | 0.662 | 0.544 | 0.573
NCI-H460 | 0.461 | 0.476 | 0.481 | 0.298 | 0.149 | 0.799 | 0.809 | 0.76 | 0.614 | 0.16 | 0.998 | 1.1 | 1.04 | 0.203 | 0.0203 | 0.907 | 0.803 | 0.739 | 0.445 | 0.184
